For one test, the system named is E. Coli ATCC BAA-2469. The procedure:
(§1) SEQ ID NO: 1 stocks were made at 5.12 mg/mL in water adjusted to pH of 5.0 with 1% glacial acetic acid.
(§2) The test organisms (Table 7) consisted of clinical isolates from the Micromyx (MMX) repository, a reference isolate from the American Type Culture Collection (ATCC, Manassas, VA) and the Centers for Disease Control (CDC, Atlanta GA). Upon initial receipt, the isolates were streaked under suitable conditions onto agar medium appropriate to each organism. The organisms were incubated for 18-24 hr at 35° C. in ambient atmosphere. Colonies harvested from these growth plates were resuspended in the appropriate medium containing a cryoprotectant. Aliquots of each suspension were then stored frozen at −80° C. Prior to testing, all organisms were cultured onto trypticase soy agar containing 5% sheep blood. The agar plates were incubated as described above.
(§3) The Test media used for MIC and FIC were testing were cation-adjusted Mueller-Hinton broth (CAMHB) and Roswell Park Memorial Institute (RPMI-1640), buffered with 3-(N-morpholino)propanesulfonic acid (MOPS). Each test media was supplemented with 0.002% Tween-80 (P-80) prior to testing.
(§4) MIC assay plates were prepared for broth microdilution in accordance with guidelines from the Clinical and Laboratory Standards Institute (CLSI); automated liquid handlers (Biomek 3000 and Biomek FX) and multi-channel pipettes were used to conduct serial dilutions and liquid transfers. MIC assay plates were prepared using a 96-well, deep-well microdilution plate that mimicked the layout of the daughter plates.
(§5) For the mother plate, wells across the standard 96-well microdilution plate were filled with 150 μL of sterile saline 0.002% P-80 in columns 2 through 12. […] The Biomek 300 was used to make eleven 2-fold serial dilutions horizontally across each row of the plate from columns 2 through 11. The Biomek FX was then used to transfer 5 μL of the SEQ ID NO: 1 and saline 0.002% P-80 to the daughter plates.
(§6) A standardized inoculum of each organism was prepared per CLSI methods. Suspensions were prepared to equal a 0.5 McFarland standard followed by a 1:10 dilution into test medium. The inocula were dispensed into sterile reservoirs divided by length and the Biomek 3000 was used to inoculate the plates. Daughter plates were placed on the Biomek 3000 work surface in reverse orientation so that inoculation took place from low to high drug concentration. The Biomek 3000 delivered 10 μL of the diluted suspension into each well. These inoculations yielded a final cell concentration in the daughter plates of approximately 5×10^5 CFU/mL in each well. Plates were incubated at 35° C. for 16-20 hr. The microplates were viewed from the bottom using a plate viewer and the MIC was recorded as the lowest concentration of drug that inhibited visible growth of the organism.

Another test relates to P. aeruginosa ATCC 27853. The protocol: as §1, §2, §3, §4, §5, §6
For a further test, the system named is S. aureus ATCC 29213. The protocol: as §1, §2, §3, §4, §5, §6
The test system of test [1] is P. aeruginosa CDC 0515. The protocol: as §1, §2, §3, §4, §5, §6
A further test deals with S. aureus NRS 384. The protocol:
as §1, §2, §3, §4, §5, §6

In another test the test system is S. aureus NRS 382. The procedure:
as §1, §2, §3, §4, §5, §6

The test system of another test is E. Coli ATCC 25922. The protocol:
as §1, §2, §3, §4, §5, §6

The subject of the next test is S. epidermidis MMX 3628. The procedure:
as §1, §2, §3, §4, §5, §6

The subject of another test is E. Coli CDC 0451. The protocol: as §1, §2, §3, §4, §5, §6
Another test relates to P. aeruginosa CDC 0509. The protocol:
as §1, §2, §3, §4, §5, §6

For a further test, the system named is S. epidermidis MMX 5129. The procedure: as §1, §2, §3, §4, §5, §6
A further test deals with S. epidermidis MMX 8655. The protocol:
as §1, §2, §3, §4, §5, §6

In test [2] the test system is P. aeruginosa CDC 0515. The note with it: for FICA / MICA: RPMI; for MICA: in combination with SEQ ID NO: 1. The procedure: FIC test ranges were set based on broth microdilution MIC test data. FIC assay plates were prepared in accordance with CLSI guidelines for broth microdilution susceptibility testing; automated liquid handlers, and multi-channel pipettes were used to conduct serial dilutions and liquid transfers.
SEQ ID NO: 1 was tested at two concentration ranges depending on the test media. All organisms tested in CAMHB 0.002% P-80 were tested from 0.015-16 μg/mL; when tested in RPMI 0.002% P-80, the range tested was 0.004-4 μg/mL. For each SEQ ID NO: 1 mother, wells across the standard 96-well microdilution plate were filled with 150 μL of sterile saline 0.002% P-80 in columns 2 through 12. A 300 μL aliquot at 20× the highest final concentration of each dilution range to be tested, was added to each well in column 1 of the plate. The Biomek 3000 was used to make eleven 2-fold serial dilutions horizontally across each row of the plate columns 2 through 11.
The daughter plates were then completed using the Biomek FX to transfer 5 μL of drug solution from each well of the SEQ ID NO: 1 mother plates to the corresponding well in each daughter plate in a single step. […] The preparation of the daughter plates was performed for each media type; two times in total as all organisms were tested in both media types.
A standard inoculum for each organism was prepared per CLSI method. Colonies were picked up from the primary plate and a suspension was prepared equal to 0.5 McFarland turbidity standard. The suspensions were additionally diluted 1:10 in the appropriate broth. A 10 μL standardized inoculum was delivered into each well using the Biomek 3000 from low to high concentration. These inoculations yielded a final cell concentration in the daughter plates of approximately 5×10^5 CFU/mL in each well. […] Exemplary checkboard panels are seen in Table 5 and Table 6. Plates were incubated at 35° C. for 16-20 hr.
The MIC of the horizontal agent (row H) and the MIC of the vertical agent (column 12) were recorded and the wells of the growth-no growth interface for wells containing agents in combination at varying ratios were recorded by row. […] Pinpoint trailing was not interpreted as growth.
For each relevant row of the panel, the FICI was calculated as:
FICdrug A/MICdrug A+FICdrug B/MICdrug=FICI
Mean FICI values were determined for each combination tested by averaging the FICI values as observed on each row of the checkerboard assay (See Table 9, e.g., if there were FICI values for B-G, those FICI values were added together and divided by the number of rows the FICI values which in this case is 6 to get the mean FICI value for that combination).
Using the criteria described by: Odds FC. 2003. Synergy, antagonism, and what the chequerboard puts between them. J Antimicrob Chemother 52(1):1, the mean FICI for the combination was interpreted as follows: ≤0.5=synergy, >0.5-4=additive/indifferent, and >4=antagonism. […] An interpretation of indifference is consistent with growth inhibition at concentrations at or slightly below/above the MICs of the individual agents alone, resulting in a FICI value of >0.5 but […].

For test [3], the system named is Staphylococcus aureus NRS 382 (USA100 MRSA) biofilm. Briefly: Wire biofilm time-kill assay (Study 3). In kind it is cell-based. The note with it: 150 mM sodium bicarbonate, 1 mg/mL; for CFU/mL: per replicate. The source says:
Study 3. […]
These three vehicles without SEQ ID NO: 1 served as the untreated controls. Double strength Dey/Engley neutralizing broth was used as a neutralizer for dilution and plating during determination of colony-forming units (CFU)/mL at each time point.
In order to establish the biofilm on the wires, the following procedure was followed: An overnight culture of each isolate was made in Tryptic soy broth. K-wires that were cut to 6 mm and sterilized by autoclaving were placed in 24 well plates and inoculated with 1 mL of a normalized bacterial suspension containing approximately 1×10^6 CFU/mL in cation-adjusted Mueller-Hinton broth. The plates containing the wires were incubated for 24 hr at 35° C. followed by removing the planktonic cells by carefully pipetting the medium from the wells. Fresh CAMHB (1 mL) was added to the wells containing the wires and the plates were incubated for an additional 24 hr at 35° C.
After the biofilm was established, the wires were removed from the wells using sterile forceps, rinsed with 1 mL of PBS, and placed in the appropriate treatment well containing 0, 1, 5, or 10 mg/mL SEQ ID NO: […] After the designated time, each wire was removed, rinsed with 1 mL of PBS, and then placed in an Eppendorf tube with 1 mL of double strength Dey-Engley medium. The wires were then sonicated at room temperature for 10 min to dislodge bacteria using a Lab Line Instruments sonicator at a setting of 100%.
A 0.2 mL aliquot of sonicate was removed and pipetted into column 1 of a 96-well plate that contained 180 μL of double strength Dey-Engley medium in columns 2 through 5. […] The plate was then tilted at a […] to allow the diluted sample to track across the agar surface to the opposite side of the plate. The plates were laid flat, allowed to dry at room temperature, then inverted and incubated at 35° C. for approximately 24 hr. Colonies were manually counted to determine the viable count in CFU/mL.

For orientation: MIC means the lowest concentration that inhibits growth of the organism.

Several values for one entry are separate records, joined by “and”; a condition that tells them apart may be missing. Equal values may be shown once. Read-outs that look alike come from different tables or passages of the source.

As to `O=C([O-])O.[Na+]` [Sodium Bicarbonate], the minimum inhibitory concentration (MIC) against E. Coli ATCC BAA-2469 (CAMHB) is listed as 200 mM; against E. Coli ATCC BAA-2469 (RPMI), 200 mM; in the test on P. aeruginosa ATCC 27853 (CAMHB) it was 200 mM; in the test with P. aeruginosa ATCC 27853 (RPMI), 200 mM; against S. aureus ATCC 29213 (CAMHB), above 200 mM; in the test on S. aureus ATCC 29213 (RPMI) it was 200 mM. Moreover, the MIC in the test on P. aeruginosa CDC 0515 [1] (CAMHB), against P. aeruginosa CDC 0515 [1] (RPMI), with S. aureus NRS 384 (CAMHB), in the test on S. aureus NRS 384 (RPMI), with S. aureus NRS 382 (CAMHB) and against S. aureus NRS 382 (RPMI) was 200 mM each time. The minimal inhibitory concentration (MIC) in the test on E. Coli ATCC 25922 (CAMHB) came out at 200 mM; in the test on E. Coli ATCC 25922 (RPMI), 200 mM; against S. epidermidis MMX 3628 (CAMHB), 100 mM; against S. epidermidis MMX 3628 (RPMI), 200 mM; in the test on E. Coli CDC 0451 (CAMHB), 100 mM; with E. Coli CDC 0451 (RPMI), 200 mM. For the same molecule, the minimal inhibitory concentration (MIC) with P. aeruginosa CDC 0509 (CAMHB), against P. aeruginosa CDC 0509 (RPMI), with S. epidermidis MMX 5129 (CAMHB), against S. epidermidis MMX 5129 (RPMI), against S. epidermidis MMX 8655 (CAMHB) and against S. epidermidis MMX 8655 (RPMI) was 200 mM throughout. Also, the “Drug A MIC” value with P. aeruginosa CDC 0515 [2] (CAMHB, alone) is above 100. For the same molecule, the FICA in the test on P. aeruginosa CDC 0515 [2] (checkerboard row A) is recorded as 0.5; in the test on P. aeruginosa CDC 0515 [2] (checkerboard row B), 0.25; in the test with P. aeruginosa CDC 0515 [2] (checkerboard row C), 0.125; in the test with P. aeruginosa CDC 0515 [2] (checkerboard row D), 0.063; with P. aeruginosa CDC 0515 [2] (checkerboard row E), 0.031; with P. aeruginosa CDC 0515 [2] (checkerboard row F), 0.016. Also, the FICA in the test with P. aeruginosa CDC 0515 [2] (checkerboard row G) came out at 0.008. The MICA with P. aeruginosa CDC 0515 [2] (checkerboard row A) came to 100; in the test on P. aeruginosa CDC 0515 [2] (checkerboard row B), 50; in the test with P. aeruginosa CDC 0515 [2] (checkerboard row C) it was 25; with P. aeruginosa CDC 0515 [2] (checkerboard row D), 12.5; in the test with P. aeruginosa CDC 0515 [2] (checkerboard row E), 6.25; in the test with P. aeruginosa CDC 0515 [2] (checkerboard row F), 3.12. Moreover, the MICA in the test with P. aeruginosa CDC 0515 [2] (checkerboard row G) came to 1.56.

On to SEQ ID: 1 (RRWVRRVRRVWRRVVRVVRRWVRR), for which the “Mean CFU/mL” value in test [3] (0 min) came out at 1.08E+5 CFU/mL; in test [3] (1 min), 1.68E+3 CFU/mL; in test [3] (5 min) it was 5.00E+1 CFU/mL; in test [3] ([…]), 1.17E+2 CFU/mL. Moreover, the CFU/mL in test [3] (0 min) is 4.80E+04 CFU/mL and 1.50E+05 CFU/mL and 1.25E+05 CFU/mL; in test [3] (1 min), 8.00E+02 CFU/mL and 3.15E+03 CFU/mL and 1.10E+03 CFU/mL; in [3] (5 min), 5.00E+01 CFU/mL. Also, the “CFU/mL 2” value in test [3] (5 min) came to 0 CFU/mL; in test [3] ([…]), 1.00E+02 CFU/mL.

Values taken from US20240252586A1, “ENGINEERED ANTIMICROBIAL PEPTIDES AND USAGE THEREOF” (priority 2021, published 2024).
